Measured values taken from paper PMC12862769 (ACS infectious diseases, 2025).

How the values were obtained:
mouse gut microbiome = assay: Mouse gut microbiome diversity in fecal pellets; format: in vivo, C57BL/6 mice; details: same regimens; day −1 vs day 7 (and 14)
E. faecium NR-31909 = assay: Multi-step resistance selection assay; format: cell-based; details: after five passages

`CCC[C@@H]1C[C@@H](C(=O)N[C@@H]([C@H]2O[C@H](SC)[C@H](O)[C@@H](O)[C@H]2O)[C@H](C)Cl)N(C)C1` [clindamycin] was tested, and the “change in beta diversity (Bray-Curtis dissimilarity), pre- vs post-treatment” value (mouse gut microbiome) was “significant change”.
For `CO[C@H]1/C=C/O[C@@]2(C)Oc3c(C)c(O)c4c(O)c(c(/C=N/N5CCN(C)CC5)c(O)c4c3C2=O)NC(=O)/C(C)=C\C=C\[C@H](C)[C@H](O)[C@@H](C)[C@@H](O)[C@@H](C)[C@H](OC(C)=O)[C@@H]1C` [rifampicin], the MIC increase (E. faecium NR-31909) was 8 fold MIC.
